The target in one experiment is T1, Noradrenalin reuptake (Rattus norvegicus, UniProt Q63380).
T1 construct: these vesicular particles are isolated from the hypothalamus of male rat brains; from tissue; host or cells: hypothalamus of male rat brains, synaptosomes (P2 fraction)
Nature of the experiment: Noradrenalin (NA) reuptake inhibition in rat hypothalamus synaptosomes. Format: biochemical. The protocol: (§1) Noradrenalin (NA) and Serotonin (5HT) Reuptake Inhibition
(§2) In order to be able to carry out these in vitro studies, synaptosomes are freshly isolated from rat brain regions. A “P2” fraction is used, which is prepared according to the instructions given by Gray and Whittaker (E. G. Gray and V. P. Whittaker (1962) J. Anat. 76, 79-88). For NA uptake, these vesicular particles are isolated from the hypothalamus of male rat brains.
(§3) A detailed description of the method may be found in the literature (M. Ch. Frink, H.-H. Hennies, W. Engiberger, M. Haurand and B. Wilffert (1996) Arzneim.-Forsch./Drug Res. 46 (III), 11, 1029-1036).

A further experiment has as its target T2, Serotonin reuptake (Rattus norvegicus, UniProt P31652).
T2 construct: synaptosomes are freshly isolated from rat brain regions; from tissue; host or cells: rat brain synaptosomes (P2 fraction)
Nature of the experiment: Serotonin (5HT) reuptake inhibition in rat brain synaptosomes. Format: biochemical. The procedure:
as §1, §2, §3

The next experiment has as its target T3, human μ opiate receptor (Homo sapiens, UniProt P35372).
T3 construct: purchased PerkinElmer Life Sciences, Zaventem, Belgium RB-HOM; host or cells: CHO-K1 cells (membrane preparation)
Nature of the experiment: Affinity for human μ opiate receptor ([3H]-naloxone displacement, SPA). The experiment is classed as binding. As to conditions: for inhibition at 1 µM / μ opioid receptor, % inhibition [1 μM]: 1 μM test substance, inhibition of specific [3H]-naloxone binding; for inhibition at 1 µM: read-out: μ opioid receptor, % inhibition [1 μM]; for Ki: Cheng-Prusoff conversion from IC50, read-out: μ opioid receptor, Ki. The procedure:
Method for Determining Affinity for Human μ Opiate Receptor
Receptor affinity for the human μ opiate receptor is determined in a homogeneous batch in microtitre plates. To this end, dilution series of the substances to be tested are incubated in a total volume of 250 μl for 90 minutes at room temperature with a receptor membrane preparation (15-40 μg protein/250 μl incubation batch) of CHO-K1 cells which express the human μ-opiate receptor (RB-HOM receptor membrane preparation from PerkinElmer Life Sciences, Zaventem, Belgium) in the presence of 1 nmol/l of the radioactive ligand [^3H]-naloxone (NET719, from PerkinElmer Life Sciences, Zaventem, Belgium) and 1 mg of WGA-SPA beads (wheat germ agglutinin SPA beads from Amersham/Pharmacia, Freiburg, Germany). 50 mmol/l of tris HCl supplemented with 0.06% bovine serum albumin is used as the incubation buffer. Nonspecific binding is determined by additionally adding 100 μmol/l of naloxone. Once the ninety minute incubation time has elapsed, the microtitre plates are centrifuged off for 20 minutes at 1000 g and the radioactivity measured in a β counter (Microbeta-Trilux, from PerkinElmer Wallac, Freiburg, Germany). The percentage displacement of the radioactive ligand from its binding to the human μ opiate receptor is determined at a concentration of the test substances of 1 μmol/l and stated as percentage inhibition of specific binding. On the basis of the percentage displacement brought about by different concentrations of the test substances, IC50 inhibition concentrations which result in a 50% displacement of the radioactive ligand are calculated. Ki values for the test substances are obtained by conversion using the Cheng-Prusoff equation.

Each structure is given as a SMILES string.

T3 sequence (P35372 whole entry): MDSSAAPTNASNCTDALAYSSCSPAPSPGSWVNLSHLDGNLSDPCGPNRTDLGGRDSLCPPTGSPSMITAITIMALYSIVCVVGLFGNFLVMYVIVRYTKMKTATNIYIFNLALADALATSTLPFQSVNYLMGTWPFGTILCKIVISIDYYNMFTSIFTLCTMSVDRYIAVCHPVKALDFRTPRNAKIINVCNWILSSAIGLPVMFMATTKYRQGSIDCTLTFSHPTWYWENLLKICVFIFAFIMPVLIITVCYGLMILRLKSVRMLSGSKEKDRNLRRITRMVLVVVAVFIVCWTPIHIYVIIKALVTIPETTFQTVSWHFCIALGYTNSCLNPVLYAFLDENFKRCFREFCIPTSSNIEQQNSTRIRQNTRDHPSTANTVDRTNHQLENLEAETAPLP
T1 sequence (Q63380 1-617): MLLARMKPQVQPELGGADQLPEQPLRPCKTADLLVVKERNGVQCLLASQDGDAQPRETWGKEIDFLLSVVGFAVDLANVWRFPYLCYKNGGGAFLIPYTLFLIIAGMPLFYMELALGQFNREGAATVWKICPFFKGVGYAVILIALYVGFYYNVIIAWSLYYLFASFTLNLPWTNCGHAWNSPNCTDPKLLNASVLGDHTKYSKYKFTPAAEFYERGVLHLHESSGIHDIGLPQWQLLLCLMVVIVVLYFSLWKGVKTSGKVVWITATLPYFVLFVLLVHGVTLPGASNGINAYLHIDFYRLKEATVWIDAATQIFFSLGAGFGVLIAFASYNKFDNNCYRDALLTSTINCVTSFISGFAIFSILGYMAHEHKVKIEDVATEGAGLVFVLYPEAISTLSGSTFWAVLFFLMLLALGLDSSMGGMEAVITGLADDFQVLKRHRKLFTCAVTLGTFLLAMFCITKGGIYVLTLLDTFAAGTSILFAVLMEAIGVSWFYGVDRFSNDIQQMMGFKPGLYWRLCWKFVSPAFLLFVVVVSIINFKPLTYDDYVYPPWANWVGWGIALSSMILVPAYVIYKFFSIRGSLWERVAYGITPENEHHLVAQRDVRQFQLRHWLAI
T2 sequence (P31652 whole entry): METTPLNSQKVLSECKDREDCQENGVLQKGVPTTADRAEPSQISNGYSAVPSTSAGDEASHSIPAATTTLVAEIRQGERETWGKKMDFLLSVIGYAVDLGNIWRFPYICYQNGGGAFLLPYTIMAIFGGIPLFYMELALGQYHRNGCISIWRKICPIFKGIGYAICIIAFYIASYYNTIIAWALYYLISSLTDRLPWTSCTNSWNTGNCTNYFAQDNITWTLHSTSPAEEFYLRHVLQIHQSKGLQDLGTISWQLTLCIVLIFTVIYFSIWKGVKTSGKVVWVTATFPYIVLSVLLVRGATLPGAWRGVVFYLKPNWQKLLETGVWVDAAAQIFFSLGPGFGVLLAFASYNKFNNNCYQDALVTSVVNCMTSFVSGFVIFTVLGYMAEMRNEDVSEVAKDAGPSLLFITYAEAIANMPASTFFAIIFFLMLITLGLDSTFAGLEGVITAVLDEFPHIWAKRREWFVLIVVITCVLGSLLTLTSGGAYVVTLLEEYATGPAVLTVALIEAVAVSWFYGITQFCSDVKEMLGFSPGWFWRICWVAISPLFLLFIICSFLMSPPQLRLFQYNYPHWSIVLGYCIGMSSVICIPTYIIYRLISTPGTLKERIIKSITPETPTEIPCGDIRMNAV

In turn, `CN(C)C(c1ccccc1)C1CCC(Cc2nc(Cc3ccc(Cl)cc3)no2)CC1` (stereo not drawn) [Example 43, (4-((3-(4-chlorobenzyl)-1,2,4-oxadiazol-5-yl)methyl)cyclohexyl)-N,N-dimethyl(phenyl)methanamine] yielded an inhibition at 10 µM at Noradrenalin reuptake of 95%. This compound had an inhibition at 10 µM against Serotonin reuptake of 95%. Also, on human μ opiate receptor, the inhibition at 1 µM was determined as 83% and the Ki was 44 nM. As to `COc1ccc(Cc2noc(CC3CCC(C(c4ccccc4)N(C)C)CC3)n2)cc1` (stereo not drawn) [Example 44, (4-((3-(4-methoxybenzyl)-1,2,4-oxadiazol-5-yl)methyl)cyclohexyl)-N,N-dimethyl(phenyl)methanamine], at Noradrenalin reuptake, at 10 µM the inhibition was 100%. Moreover, at Serotonin reuptake, the inhibition at 10 µM is 99%. On human μ opiate receptor, the “μ opioid receptor, % inhibition [1 μM]” value was found to be 75% and the Ki amounted to 72 nM.

Consider `CN(C)C(c1ccc(F)cc1)C1CCC(=Cc2nc(-c3cccc(Cl)c3Cl)no2)CC1` (stereo not drawn) [Example 55, [{4-[3-(2,3-dichlorophenyl)-[1,2,4]oxadiazol-5-ylmethylene]-cyclohexyl}-(4-fluorophenyl)-methyl]-dimethylamine], for which the inhibition at 1 µM at human μ opiate receptor worked out at 53%. `CN(C)C(c1ccccc1)C1CCC(=Cc2nc(-c3ccccc3)no2)CC1` (stereo not drawn) [Example 69, dimethyl-{phenyl-[4-(3-phenyl-[1,2,4]oxadiazol-5-ylmethylene)-cyclohexyl]-methyl}-amine]: the inhibition at 1 µM on human μ opiate receptor was 40%. On the same count and under the same terms, the figure for `COc1ccc(Cc2noc(C=C3CCC(C(c4ccccc4)N(C)C)CC3)n2)cc1` (stereo not drawn) [Example 79, ({4-[3-(4-methoxybenzyl)-[1,2,4]oxadiazol-5-ylmethylene]-cyclohexyl}-phenylmethyl)-dimethylamine] is 43%; for `Cc1cccc(-c2noc(C=C3CCC(C(c4ccccc4)N(C)C)CC3)n2)c1` (stereo not drawn) [Example 135, dimethyl-{phenyl-[4-(3-m-tolyl-[1,2,4]oxadiazol-5-ylmethylene)-cyclohexyl]-methyl}-amine] it is 44%. Same read-out and setting: the figure for `CN(C)C(c1ccccc1)C1CCC(C=Cc2nc(Cc3ccc(Cl)cc3)no2)CC1` (stereo not drawn) [Example 149, [(4-{2-[3-(4-chlorobenzyl)-[1,2,4]oxadiazol-5-yl]-vinyl}-cyclohexyl)-phenylmethyl]-dimethylamine] is 42%.

Take `CN(C)C(c1ccccc1)C1CCC(C=Cc2nc(Cc3ccc(Cl)cc3)no2)CC1` (stereo not drawn) [Example 150, [(4-{2-[3-(4-chlorobenzyl)-[1,2,4]oxadiazol-5-yl]-vinyl}-cyclohexyl)-phenylmethyl]-dimethylamine]: on human μ opiate receptor, the “μ opioid receptor, % inhibition [1 μM]” value came to 56%. On to `CN(C)C(c1cccs1)C1CCC(C=Cc2nc(Cc3ccc(Cl)cc3)no2)CC1` (stereo not drawn) [Example 155, [(4-{2-[3-(4-chlorobenzyl)-[1,2,4]oxadiazol-5-yl]-vinyl}-cyclohexyl)-thiophen-2-yl-methyl]-dimethylamine], for which, at human μ opiate receptor, the inhibition at 1 µM was 52%. Still for that read-out and setting: the same measure for `Cc1cccc(-c2noc(C=CC3CCC(C(c4ccccc4)N(C)C)CC3)n2)c1` (stereo not drawn) [Example 183, dimethyl-(phenyl-{4-[2-(3-m-tolyl-[1,2,4]oxadiazol-5-yl)-vinyl]-cyclohexyl}-methyl)-amine]: 40%. The same measure, in the same setting: the figure for `Cc1cccc(-c2noc(C=CC3CCC(C(c4cccs4)N(C)C)CC3)n2)c1` (stereo not drawn) [Example 195, dimethyl-(thiophen-2-yl-{4-[2-(3-m-tolyl-[1,2,4]oxadiazol-5-yl)-vinyl]-cyclohexyl}-methyl)-amine] is 48%; for `Cc1ccc(-c2noc(C=CC3CCC(C(c4cccs4)N(C)C)CC3)n2)n1C` (stereo not drawn) [Example 224, [(4-{2-[3-(1,5-dimethyl-1H-pyrrol-2-yl)-[1,2,4]oxadiazol-5-yl]-vinyl}-cyclohexyl)-thiophen-2-yl-methyl]-dimethylamine] it is 54%. As to `CN(C)C(c1cccc(F)c1)C1CCC(Cc2nc(-c3ccccc3)no2)CC1` (stereo not drawn) [Example 232, {(3-fluorophenyl)-[4-(3-phenyl-[1,2,4]oxadiazol-5-ylmethyl)-cyclohexyl]-methyl}-dimethylamine], on human μ opiate receptor, the inhibition at 1 µM was determined as 41%. Take `CN(C)C(c1ccccc1)C1CCC(Cc2nc(-c3ccccc3)no2)CC1` (stereo not drawn) [Example 234, dimethyl-{phenyl-[4-(3-phenyl-[1,2,4]oxadiazol-5-ylmethyl)-cyclohexyl]-methyl}-amine]: the inhibition at 1 µM at human μ opiate receptor was 64%. Same read-out and setting: the figure for `COc1ccc(Cc2noc(CC3CCC(C(c4ccccc4)N(C)C)CC3)n2)cc1` (stereo not drawn) [Example 239, ({4-[3-(4-methoxybenzyl)-[1,2,4]oxadiazol-5-ylmethyl]-cyclohexyl}-phenylmethyl)-dimethylamine] is 66%.

`CN(C)C(c1ccccc1)C1CCC(Cc2nc(-c3cccc(Cl)c3)no2)CC1` (stereo not drawn) [Example 243, ({4-[3-(3-chlorophenyl)-[1,2,4]oxadiazol-5-ylmethyl]-cyclohexyl}-phenylmethyl)-dimethylamine]: on human μ opiate receptor, the inhibition at 1 µM was found to be 55% and the Ki stood at 320 nM.

In the case of `CN(C)C(c1ccccc1)C1CCC(Cc2nc(-c3cccc(Cl)c3Cl)no2)CC1` (stereo not drawn) [Example 246, ({4-[3-(2,3-dichlorophenyl)-[1,2,4]oxadiazol-5-ylmethyl]-cyclohexyl}-phenylmethyl)-dimethylamine], the inhibition at 1 µM at human μ opiate receptor worked out at 56%. Regarding `Cc1cccc(-c2noc(CC3CCC(C(c4ccccc4)N(C)C)CC3)n2)c1` (stereo not drawn) [Example 258, dimethyl-{phenyl-[4-(3-m-tolyl-[1,2,4]oxadiazol-5-ylmethyl)-cyclohexyl]-methyl}-amine], at human μ opiate receptor, the inhibition at 1 µM is 53%. Take `COc1ccc(Cc2noc(CCC3CCC(C(c4ccccc4)N(C)C)CC3)n2)cc1` (stereo not drawn) [Example 269, [(4-{2-[3-(4-methoxybenzyl)-[1,2,4]oxadiazol-5-yl]-ethyl}-cyclohexyl)-phenylmethyl]-dimethylamine]: at human μ opiate receptor, the inhibition at 1 µM came out at 43%. Take `CN(C)C(c1ccccc1)C1CCC(CCc2nc(Cc3ccc(Cl)cc3)no2)CC1` (stereo not drawn) [Example 273, [(4-{2-[3-(4-chlorobenzyl)-[1,2,4]oxadiazol-5-yl]-ethyl}-cyclohexyl)-phenylmethyl]-dimethylamine]: the inhibition at 1 µM at human μ opiate receptor is 68%.

Turning to `CN(C)C(c1ccccc1)C1CCC(CCc2nc(-c3ccc(F)cc3F)no2)CC1` (stereo not drawn) [Example 281, [(4-{2-[3-(2,4-difluorophenyl)-[1,2,4]oxadiazol-5-yl]-ethyl}-cyclohexyl)-phenylmethyl]-dimethylamine], on human μ opiate receptor, the inhibition at 1 µM is 69%. For the compound `Cc1cccc(-c2noc(CCC3CCC(C(c4ccccc4)N(C)C)CC3)n2)c1` (stereo not drawn) [Example 296, dimethyl-(phenyl-{4-[2-(3-m-tolyl-[1,2,4]oxadiazol-5-yl)-ethyl]-cyclohexyl}-methyl)-amine], the inhibition at 1 µM on human μ opiate receptor was determined as 45%.

Take `CN(C)C(c1ccccc1)C1CCC(CCc2nc(-c3cccc(Cl)c3Cl)no2)CC1` (stereo not drawn) [Example 304, [(4-{2-[3-(2,3-dichlorophenyl)-[1,2,4]oxadiazol-5-yl]-ethyl}-cyclohexyl)-phenylmethyl]-dimethylamine]: the inhibition at 1 µM at human μ opiate receptor was 51%.

The inhibition is the relative decrease from the control value, in per cent. One may read the Ki as a dissociation constant, usually derived from enzyme kinetics or from competition with a known ligand.
